Laboratory results as given in patent US20220401951A1, “RAPID CELL CULTURE TEST DEVICE INCLUDING ISLAND STRUCTURES” (QuantaMatrix Inc., priority 2020, published 2022).

Tested on: P. aeruginosa ATCC 27853
Assay: antibiotic susceptibility test in the cell culture test device (solid thin film, microscopic observation)
Assay type: cell-based
Details: device of Example 1
Protocol: Colistin as an antibiotic was loaded into the island structure through the third inlet portion of each of the well units. The antibiotic was loaded in an amount of 10 μl, dried, and fixed in the shape illustrated in (b) of FIG. 5.
Thereafter, 10 μl of a mixture of agarose and a bacterial solution (P. aeruginosa ATCC 27853) as a first fluid was dispensed into the first accommodation space through the first inlet portion. After the introduction of the first fluid into the first accommodation space was completed, 100 μl of a culture medium as a second fluid was introduced into the second accommodation space through the second inlet portion.
In each of Examples 1-8 and Comparative Examples 1-4, 10 cell culture test devices having the same structure were manufactured. A determination was made as to whether the solid thin films of the first fluid were defective. The susceptibilities to the antibiotic at four selected points of each first accommodation space were evaluated. The four points (a, b, c, and d) were at right angles to the first inlet portion. […] The solid thin film in the first accommodation space was visually observed to determine whether the solid thin film was defective.
Particularly, the effect of the antibiotic was pronounced at ≥1 mg/ml.

Substance: Colistin
- response of bacteria in solid thin film to colistin (after 6 h, 0 to 2 mg/ml colistin (FIG. 10)): Clear responses were observed
- colistin concentration at which the effect of the antibiotic was pronounced (observation after 6 h, concentrations tested 0, 0.12, 0.25, 0.5, 1, 2 mg/ml (FIG. 10)): ≥ 1 mg/mL
